From patent EP4692071A1, “PHOTOCHROMIC COMPOUND, NAPHTHOL DERIVATIVE, CURABLE COMPOSITION, OPTICAL ARTICLE, LENS, AND EYEGLASS” (TOKUYAMA CORPORATION, priority 2023, dated 2024)
Where “and” joins values, the source holds several entries; their conditions need not be identical. Equal entries are not always repeated.

Legend:
Assay type in all cases: physicochemical
[1] = 35°C color optical density (A35): absorbancy difference ε(240)-ε(0) after 240 s light irradiation at 35°C; conditions: photochromic laminate by coating method, 240 s irradiation
Summary of the method: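 Color optical density at 35°C (A35) came from light exposure of the sample at 35°C lasting 240 seconds. At the first and second absorption wavelengths, the absorbancy before irradiation, ε(0), was subtracted from the absorbancy measured after irradiation, ε(240). This difference was taken as the measure of color optical density.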

[2] = Residual rate (A90/A0×100) after 90 h accelerated deterioration in xenon weather meter X25, color developing durability; conditions: photochromic laminate by coating method, xenon weather meter 90 hours
Summary of the method: (§1)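 Read-out: absorbance at λmax, multichannel photodetector spectrophotometer. Colour density = ε(240) − ε(0), 240 s light, 23°C. τ1/2 = time for ε(240) − ε(0) to halve after light off. Residual rate compares density before and after 90 h xenon weathering.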

[3] = High-temperature color development rate (A35/A23×100), temperature dependency; conditions: photochromic laminate by coating method
Summary of the method: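 The sample was irradiated with light for 240 seconds at 23°C and separately at 35°C. The gain in absorbance over the unirradiated state, ε(240)−ε(0), gave the color optical densities A23 and A35. A35 divided by A23, multiplied by 100, expressed how well color development holds up at the higher temperature.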

[4] = Maximum absorption wavelength (λmax) after color development, spectrophotometer MCPD3000; conditions: photochromic laminate by coating method, 40 µm photochromic layer on thiourethane lens, 0.25 mmol compound per 100 g monomers
Summary of the method: as §1

[5] = 23°C color optical density (A23): absorbancy difference ε(240)-ε(0) after 240 s light irradiation at 23°C; conditions: photochromic laminate by coating method, 240 s irradiation, at the maximum absorption wavelength
Summary of the method: as §1

[6] = 23°C color fading half-life τ1/2 after 240 s light irradiation
Experimental: • [1] Maximum Absorption Wavelength (λmax): The maximum absorption wavelength after color development, measured using a spectrophotometer (instantaneous multichannel photodetector MCPD3000) manufactured by Otsuka Electronics Co., Ltd. was used as an indicator for the color tone during the color development. • [2] 23°C Color Optical Density (A23): A difference between an absorbancy measured after light irradiation at 23°C for 240 seconds {ε(240)} and an absorbancy without light irradiation ε(0) at the maximum absorption wavelength was used as an indicator for the color optical density. […] 35°C Color Optical Density (A35): A difference between an absorbancy measured after light irradiation at 35°C for 240 seconds {ε(240)} and an absorbancy without light irradiation ε(0) at the first and second absorption wavelengths was used as an indicator for the color optical density. […] 23°C color fading half-life [τ1/2 (sec.)]: A time required for the absorbancy of the sample at the maximum absorption wavelength to decrease to 1/2 of {ε(240)-ε(0)} when the light irradiation is terminated after the light irradiation at 23°C for 240 seconds, was used as an indicator for the color fading speed. The shorter this time, the higher the color fading speed. • [6] Residual rate (A90/A0×100): The obtained photochromic plastic lens was subjected to accelerated deterioration using a xenon weather meter X25 manufactured by Suga Test Instruments Co., Ltd. for 90 hours. Subsequently, the color optical density was evaluated before and after the test, then a color optical density before the test (A0) and a color optical density after the test (A90) were measured, and a ratio (A90/A0) was defined as a residual rate. The residual rate was used as an indicator for a color developing durability. The higher the residual rate, the higher the color developing durability.

## CCCC1(CCC)c2ccccc2-c2c1c1c(c3cc(OC)c(N(c4ccccc4)c4ccccc4)cc23)OC(c2ccc(OC)cc2)(c2ccc(N3CCOCC3)cc2)C=C1 (stereo not shown) [Example 7 Formula (50)]
[1]; at 522 nm absorption maximum
  A35 (-): 0.74 -
[1]; at 615 nm absorption maximum
  A35 (-): 0.71 -
[2]; at 522 nm absorption maximum
  Residual rate (%): 77%
[2]; at 615 nm absorption maximum
  Residual rate (%): 76%
[3]
  A35/A23 *100 (%): 62%
[4]; at 522 nm absorption maximum
  Maximum absorption wavelength (nm): 522 nm
[4]; at 615 nm absorption maximum
  Maximum absorption wavelength (nm): 615 nm
[5]; at 522 nm absorption maximum
  A23 (-): 1.19 -
[5]; at 615 nm absorption maximum
  A23 (-): 1.14 -
[6]
  23°C color fading half-life: 44 s

## CCCC1(CCC)c2ccccc2-c2c1c1c(c3cc(OC)c(N(c4ccccc4)c4ccccc4)cc23)OC(c2ccc(C)cc2)(c2ccc(N(C)c3ccccc3)cc2)C=C1 (stereo not shown) [Example 22 Formula (89)]
[1]
  A35 (-): 1.03 -
[2]
  Residual rate (%): 76%
[3]
  A35/A23 *100 (%): 68%
[4]
  Maximum absorption wavelength (nm): 530 nm
[5]
  A23 (-): 1.51 -
[6]
  23°C color fading half-life: 75 s

## CCCOc1ccc(C2(c3ccc(OC)cc3)C=Cc3c4c(c5cc(N(c6ccc(C(F)(F)F)cc6)c6ccc(C(F)(F)F)cc6)c(OC)cc5c3O2)-c2ccccc2C4(CCCCOC)CCCCOC)cc1 (stereo not shown) [Example 11 Formula (63)]
[1]; at 462 nm absorption maximum
  A35 (-): 0.46 -
[1]; at 576 nm absorption maximum
  A35 (-): 0.41 -
[2]
  Residual rate (%): 83%
[3]
  A35/A23 *100 (%): 61%
[4]; at 462 nm absorption maximum
  Maximum absorption wavelength (nm): 462 nm
[4]; at 576 nm absorption maximum
  Maximum absorption wavelength (nm): 576 nm
[5]; at 462 nm absorption maximum
  A23 (-): 0.75 -
[5]; at 576 nm absorption maximum
  A23 (-): 0.66 -
[6]
  23°C color fading half-life: 40 s

## CCCCN(c1ccc(C(F)(F)F)cc1)c1cc2c3c(c4c(c2cc1OC)OC(c1ccc(C)cc1)(c1ccc(OC)cc1)C=C4)C1(CCCCCCCCCCC1)c1cc(OC)ccc1-3 (stereo not shown) [Example 54 Formula (123)]
[1]
  A35 (-): 0.60 - and 0.80 -
[2]
  Residual rate (%): 78%
[3]
  A35/A23 *100 (%): 74%
[4]
  Maximum absorption wavelength (nm): 453 nm and 583 nm
[5]
  A23 (-): 0.82 - and 1.08 -
[6]
  23°C color fading half-life: 175 s

## CCCCN(c1ccc(F)cc1)c1cc2c3c(c4c(c2cc1OC)OC(c1ccc(OC)cc1)(c1ccc(OC)cc1)C=C4)C(CCCCOC)(CCCCOC)c1ccccc1-3 [Example 16 Formula (77)]
[1]
  A35 (-): 0.84 -
[2]
  Residual rate (%): 80%
[3]
  A35/A23 *100 (%): 67%
[4]
  Maximum absorption wavelength (nm): 498 nm
[5]
  A23 (-): 1.25 -
[6]
  23°C color fading half-life: 72 s

## COCCCC1(CCCOC)c2cc(Sc3c(C)cccc3C)ccc2-c2c1c1c(c3cc(OC)c(N(CCOC)c4ccc(C(F)(F)F)cc4)cc23)OC(c2ccc(OC)cc2)(c2ccc(OC)cc2)C=C1 [Example 57 Formula (132)]
[1]
  A35 (-): 0.44 - and 0.48 -
[2]
  Residual rate (%): 77%
[3]
  A35/A23 *100 (%): 67% and 68%
[4]
  Maximum absorption wavelength (nm): 468 nm and 597 nm
[5]
  A23 (-): 0.66 - and 0.71 -
[6]
  23°C color fading half-life: 47 s

## COCCCCC1(CCCCOC)c2ccccc2-c2c1c1c(c3cc(C)c(N(C)c4ccccc4)cc23)OC(c2ccc(C)cc2)(c2ccc(OC)cc2)C=C1 (stereo not shown) [Example 5 Formula (43)]
[1]
  A35 (-): 0.79 -
[2]
  Residual rate (%): 73%
[3]
  A35/A23 *100 (%): 66%
[4]
  Maximum absorption wavelength (nm): 442 nm
[5]
  A23 (-): 1.19 -
[6]
  23°C color fading half-life: 90 s

## CCCCN(c1ccccc1)c1cc2c3c(c4c(c2cc1OC)OC(c1ccc(OC)cc1)(c1ccc(OCCC)cc1)C=C4)C(CC)(CC)c1cc(OC(F)(F)F)ccc1-3 (stereo not shown) [Example 51 Formula (117)]
[1]
  A35 (-): 0.61 -
[2]
  Residual rate (%): 75%
[3]
  A35/A23 *100 (%): 62%
[4]
  Maximum absorption wavelength (nm): 501 nm
[5]
  A23 (-): 0.98 -
[6]
  23°C color fading half-life: 38 s

## CCCC1(CCC)c2ccccc2-c2c1c1c(c3cc(OC)c(N(C)c4ccccc4)cc23)OC(c2ccc(OC)cc2)(c2ccc(N(c3ccccc3)c3ccccc3)cc2)C=C1 (stereo not shown) [Example 21 Formula (87)]
[1]
  A35 (-): 0.87 -
[2]
  Residual rate (%): 80%
[3]
  A35/A23 *100 (%): 69%
[4]
  Maximum absorption wavelength (nm): 524 nm
[5]
  A23 (-): 1.26 -
[6]
  23°C color fading half-life: 97 s
